Reference: ChEMBL document CHEMBL1153442, “Synthesis and in vitro evaluation of sulfonamide isatin Michael acceptors as small molecule inhibitors of caspase-6” (J Med Chem, 2009)

What was measured:
Caspase-7 = target: T1, Caspase-7 (Homo sapiens, UniProt P55210); assay: Inhibition of human recombinant caspase 7 assessed as accumulation of fluorogenic product by fluorometric assay
T1 sequence (P55210 whole entry): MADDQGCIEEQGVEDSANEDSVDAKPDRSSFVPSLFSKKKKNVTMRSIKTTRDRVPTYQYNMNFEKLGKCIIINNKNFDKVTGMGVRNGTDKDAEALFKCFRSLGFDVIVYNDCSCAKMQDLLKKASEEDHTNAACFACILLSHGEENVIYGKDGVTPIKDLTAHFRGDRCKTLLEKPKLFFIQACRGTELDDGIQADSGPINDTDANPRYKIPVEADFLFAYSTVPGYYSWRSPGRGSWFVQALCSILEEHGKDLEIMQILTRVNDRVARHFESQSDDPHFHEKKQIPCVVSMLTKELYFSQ

Caspase-6 = target: T2, Caspase-6 (Homo sapiens, UniProt P55212); assay: Inhibition of human recombinant caspase 6 assessed as accumulation of fluorogenic product by fluorometric assay
T2 sequence (P55212 whole entry): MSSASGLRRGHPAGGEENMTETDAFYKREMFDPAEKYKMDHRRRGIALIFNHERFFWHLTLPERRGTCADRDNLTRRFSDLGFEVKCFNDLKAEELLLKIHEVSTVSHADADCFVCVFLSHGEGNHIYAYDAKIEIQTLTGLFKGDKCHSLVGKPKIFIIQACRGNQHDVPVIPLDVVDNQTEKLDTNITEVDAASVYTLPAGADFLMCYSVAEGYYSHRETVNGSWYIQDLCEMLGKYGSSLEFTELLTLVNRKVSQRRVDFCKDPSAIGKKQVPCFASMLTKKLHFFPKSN

Caspase-8 = Caspase-8 (Homo sapiens, UniProt Q14790); assay: Inhibition of human recombinant caspase 8 assessed as accumulation of fluorogenic product by fluorometric assay
Sequence of Caspase-8 (Q14790 217-374 limits assumed): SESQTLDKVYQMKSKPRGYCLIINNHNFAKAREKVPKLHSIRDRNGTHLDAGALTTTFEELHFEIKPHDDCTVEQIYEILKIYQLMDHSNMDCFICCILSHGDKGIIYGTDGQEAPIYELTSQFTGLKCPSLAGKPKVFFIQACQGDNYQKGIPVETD
Sequence of Caspase-8 (Q14790 385-479 limits assumed): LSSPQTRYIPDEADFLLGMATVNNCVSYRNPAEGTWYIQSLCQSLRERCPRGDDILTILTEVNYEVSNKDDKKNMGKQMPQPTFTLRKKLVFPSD

Caspase-3 = target: T3, Caspase-3 (Homo sapiens, UniProt P42574); assay: Inhibition of human recombinant caspase 3 assessed as accumulation of fluorogenic product by fluorometric assay
T3 sequence (P42574 whole entry): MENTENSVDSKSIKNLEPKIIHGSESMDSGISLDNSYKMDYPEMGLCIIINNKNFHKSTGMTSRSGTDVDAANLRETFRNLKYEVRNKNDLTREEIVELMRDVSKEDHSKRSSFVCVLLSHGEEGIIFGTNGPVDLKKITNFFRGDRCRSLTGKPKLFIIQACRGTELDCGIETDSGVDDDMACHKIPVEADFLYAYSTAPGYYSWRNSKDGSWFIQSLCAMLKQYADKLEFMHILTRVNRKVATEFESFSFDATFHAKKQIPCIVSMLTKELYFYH

Caspase-1 = target: T4, Caspase-1 (Homo sapiens, UniProt P29466); assay: Inhibition of human recombinant caspase 1 assessed as accumulation of fluorogenic product by fluorometric assay
T4 sequence (P29466 whole entry): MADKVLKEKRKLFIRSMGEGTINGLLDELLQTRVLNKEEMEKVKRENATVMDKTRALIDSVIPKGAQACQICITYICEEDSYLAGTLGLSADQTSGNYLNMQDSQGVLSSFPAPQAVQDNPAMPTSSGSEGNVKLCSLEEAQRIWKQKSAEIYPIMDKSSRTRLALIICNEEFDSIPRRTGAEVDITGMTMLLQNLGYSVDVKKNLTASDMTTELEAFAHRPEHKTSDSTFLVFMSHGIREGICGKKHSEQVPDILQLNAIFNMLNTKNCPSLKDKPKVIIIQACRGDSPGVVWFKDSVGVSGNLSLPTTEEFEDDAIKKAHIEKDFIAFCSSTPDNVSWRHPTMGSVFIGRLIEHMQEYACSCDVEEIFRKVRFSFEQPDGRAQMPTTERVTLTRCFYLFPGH

Homo sapiens = species on record: Homo sapiens; assay: Selectivity for human recombinant caspase 3 over human recombinant caspase 6

Row | SMILES | IC50 (Caspase-7) [nM] | IC50 (Caspase-6) [nM] | IC50 (Caspase-8) [nM] | IC50 (Caspase-3) [nM] | IC50 (Caspase-1) [nM] | fold change (FC) (Homo sapiens)
1 | N#CC(C#N)=C1C(=O)N(Cc2ccc(Cl)c(Cl)c2)c2ccc(S(=O)(=O)N3CCCC3)cc21 | 471 | 468 | > 50000 | 724 | > 10000 | 
2 | N#CC(C#N)=C1C(=O)N(Cc2ccc(Cl)c(Cl)c2)c2ccc(S(=O)(=O)N3CCC3)cc21 | 340 | 280 | > 50000 | 365 | > 10000 | 
3 | CC(=O)N[C@@H](CC(=O)O)C(=O)N[C@@H](CCC(=O)O)C(=O)N[C@H](C(=O)N[C@H](C=O)CC(=O)O)C(C)C | 2.95 |  |  |  |  | 
4 | N#CC(C#N)=C1C(=O)N(Cc2ccc(Cl)c(Cl)c2)c2ccc(S(=O)(=O)N3CCSCC3)cc21 | 5100 | 230 | > 50000 | 1990 | 5350 | 
5 | N#CC(C#N)=C1C(=O)N(Cc2ccccc2)c2ccc(S(=O)(=O)N3CCOCC3)cc21 | 4470 | 425 | > 50000 | 4700 |  | 
6 | N#CC(C#N)=C1C(=O)N(Cc2ccccc2)c2ccc(S(=O)(=O)N3CCSCC3)cc21 | 1620 | 151 | > 50000 | 1450 | 4580 | 
7 | O=C1Nc2ccc(S(=O)(=O)N3CCOCC3)cc2C1=O | > 20000 | > 20000 | > 50000 | > 20000 | > 25000 | 
8 | N#CC(C#N)=C1C(=O)N(Cc2ccc(Cl)c(Cl)c2)c2ccc(S(=O)(=O)N3CCOCC3)cc21 | 7900 | 592 | > 50000 | 1550 | 5350 | 
9 | N#CC(C#N)=C1C(=O)N(Cc2ccc(Cl)c(Cl)c2)c2ccc(S(=O)(=O)N3CCCCC3)cc21 | 3420 | 568 | > 50000 | 529 | > 10000 | 
10 | COc1ccc(CN2C(=O)C(=C(C#N)C#N)c3cc(S(=O)(=O)N4CCSCC4)ccc32)cc1 | 1890 | 188 | > 50000 | 1670 | 4300 | 
11 | N#CC(C#N)=C1C(=O)N(Cc2ccccc2)c2ccc(S(=O)(=O)N3CCCC3)cc21 | 587 | 241 | > 50000 | 671 | 4700 | 
12 | COc1ccc(CN2C(=O)C(=C(C#N)C#N)c3cc(S(=O)(=O)N4CCC4)ccc32)cc1 | 471 | 197 | > 50000 | 718 | 4180 | 
13 | COc1ccc(CN2C(=O)C(=C(C#N)C#N)c3cc(S(=O)(=O)N4CCCC4)ccc32)cc1 | 443 | 358 | > 50000 | 673 | 4700 | 
14 | O=C1C(=O)N(Cc2ccccc2)c2ccc(S(=O)(=O)N3CCC3)cc21 | 132 | 9830 | > 50000 | 114 | > 10000 | 
15 | COc1ccc(CN2C(=O)C(=C(C#N)C#N)c3cc(S(=O)(=O)N4CCCCC4)ccc32)cc1 | 1150 | 545 | > 50000 | 1400 | > 10000 | 
16 | O=C1C(=O)N(Cc2ccc(Cl)c(Cl)c2)c2ccc(S(=O)(=O)N3CCOCC3)cc21 | 2230 | > 15000 | > 50000 | 1430 | > 25000 | 
17 | O=C1C(=O)N(Cc2ccccc2)c2ccc(S(=O)(=O)N3CCSCC3)cc21 | 1480 | 12800 | > 50000 | 1030 | > 10000 | 10
18 | O=C1C(=O)N(Cc2ccccc2)c2ccc(S(=O)(=O)N3CCC[C@H]3COc3ccccc3)cc21 |  | > 5000 |  | 14.5 |  | 
19 | COc1ccc(CN2C(=O)C(=C(C#N)C#N)c3cc(S(=O)(=O)N4CCOCC4)ccc32)cc1 | 4100 | 453 | > 50000 | 4630 | 6820 | 
20 | N#CC(C#N)=C1C(=O)N(Cc2ccccc2)c2ccc(S(=O)(=O)N3CCC3)cc21 | 248 | 156 | > 50000 | 323 | 3300 | 
21 | N#CC(C#N)=C1C(=O)N(Cc2ccccc2)c2ccc(S(=O)(=O)N3CCCCC3)cc21 | 878 | 325 | > 50000 | 583 |  | 
